In EP2077274A1, “Synthetic analogs of human beta-defensins having antimicrobial, antiviral and chemotactic activity” (Ceinge Biotecnologie Avanzate s.c. a r.l., priority 2008, dated 2009):

Key:
[1] = test system: neutrophils; assay: Chemotaxis assay (leukocyte migration, calcein fluorescence); type: cell-based, human; conditions: peptide 1.25 µM
Experimental: (§1) Preparation of leukocytes-Monocytes and neutrophils were isolated as described in the StemSep Cell Technical Manual (Stem Cell Technologies, Vancouver, Canada). Briefly, to obtain neutrophils, buffy coats were diluted 1:20 in NH4Cl supplemented with 2 mM EDTA and incubated on ice for 20 min. Cell suspensions were centrifuged for 10 min at 600 X g at room temperature with the brake off and washed three times with phosphate buffered saline (PBS) supplemented with 2% foetal bovine serum and 2 mM EDTA. Cell viability was assessed by analysis of light scatter properties, and cell count was performed using a logical gate strategy based on Trucount tubes (Becton-Dickinson, San Jose, CA, USA). Neutrophils were purified from lysed buffy coats using StemSep negative selection system. To this purpose, 100x10^6 mononuclear cells from lysed buffy coats were incubated with 100 µL of custom antibody cocktail for human granulocytes enrichment (Stem Cell Technologies) for 45 min on ice. In addition, cell suspensions were incubated with 60 µL of magnetic colloid for 30 minutes on ice. Finally, the samples were run through a 0.3-inch column matrix in a negative selection system in which the unwanted cells were immunomagnetically labelled and bound to the magnetic column. Neutrophils, after the separation, were collected in the column flowthrough without antibody bound to their surface. In order to obtain monocytes, human buffy coats were layered over a Ficoll-Paque density gradient and spun at 600 X g for 30 min with the brake off. The mononuclear cell-rich fractions were washed three times with PBS supplemented with 2% foetal bovine serum (FBS) and 2 mM EDTA. Cell viability was assessed by analysis of light scatter properties, and cell count was performed using a logical gate strategy based on Trucount tubes (Becton-Dickinson). A custom antibody cocktail for human monocyte enrichment (Stem Cells Technologies) was used for immunomagnetic negative selection of monocytes. Mononuclear cells were incubated as above described for neutrophils. Both neutrophils and monocytes were resuspended in 5.0 mL of RPMI-1640 (Sigma-Aldrich, St Louis, MO, USA) without phenol red containing 10% heat-treated FBS. Calcein AM (Molecular Probes, Eugene, OR, USA) was added to the cell suspensions (5.0 mL) at a concentration of 5 µg/mL and the cells were incubated for 30 min at 37°C. Cell suspensions were washed twice with PBS and then resuspended in RPMI-FBS to the desired concentration.
(§2) Measurement of leukocytes migration-The chemotaxis assay of monocytes and neutrophils (90-95% of purity) was performed in 96-well disposable chemotaxis chambers (Neuroprobe, Gaithersburg, MD, USA) using polyvinyl-pyrrolidone-free polycarbonate membranes with an […] pore size for monocytes and with a […] pore size for neutrophils. Chemotaxis was measured by fluorescence detection, using the calcein fluorescence signal. The fluorescence was read in a microplate fluorescence reader (Victor 3 1420 Multilabel Counter, Perkin Elmer) with excitation/emission wave-length settings of 485/530 nm. We calculated the migration index as the ratio between the sample mean fluorescence (after subtraction of the negative control mean fluorescence)/positive control mean fluorescence. Each assay was performed in quadruplicate.

[2] = test system: monocytes; assay: as above; type: cell-based, human; conditions: peptide 1.25 µM
Experimental: as §1, §2

[3] = test system: Escherichia coli ATCC 25922; assay: Colony-forming unit (CFU) assay of antibacterial activity with NaCl dependence; type: cell-based
Experimental: (§3) Colony-forming unit (CFU) assay of the antibacterial activity of the peptides against P.aeruginosa ATCC (American Type Culture Collection, Manassas, VA, USA) 27853, Enterococcus faecalis ATCC 29212 and Escherichia coli ATCC 25922 was performed. The strains were grown in aerobic conditions in tryptic soy broth (Difco Laboratories, Detroit, MI, USA) at 37°C. Cells from exponential-phase cultures were centrifuged, washed and suspended to a density of 1 x 10^5 CFU/mL in sterile 10 mM potassium phosphate buffer, pH 7.4, and incubated in the presence of the peptides. The incubation time was 2 h at 37°C. […] For salt dependence assay, NaCl in a range of concentrations potentially present in the airway surface fluid of normal subjects and CF patients (33), i.e., 0, 50, 100 and 200 mM NaCl, were included in the incubation buffer. The cells were then diluted serially in the same buffer, spread on tryptone-yeast (Difco Laboratories) plates and the colonies were counted after 18 h at 37°C. Each assay was performed in triplicate. Bactericidal activity (mean and SD of three assays) is expressed as the ratio between colonies counted and the number of colonies on a control plate.

[4] = test system: Enterococcus faecalis ATCC 29212; assay: as above; type: cell-based
Experimental: as §3

[5] = test system: P.aeruginosa ATCC 27853; assay: as above; type: cell-based
Experimental: as §3

[6] = test system: HSV-1; assay: HSV-1 infectivity plaque assay on Vero cell monolayers (co-exposure, virus pre-treatment, cell pre-exposure); type: cell-based; conditions: peptide 20 µM, mean and SD of 3 replicates
Experimental: Vero cells were grown in Dulbecco's modified Eagle's medium (DMEM) supplemented with 10% foetal calf serum. HSV-1 carrying a IacZ gene driven by the cytomegalovirus (CMV) IE-1 promoter to express beta-galactosidase was propagated as described (33). Peptides were dissolved in DMEM with serum and used at different concentrations. All experiments were conducted in parallel with scrambled peptides and no-peptide controls. […] Non-penetrated viruses were inactivated by citrate buffer at pH 3.0 after the 45 min incubation with cells at 37°C. The cells were then incubated for 48 h at 37°C in DMEM supplemented with carboxymethylcellulose (CMC). Monolayers were fixed, stained with 5-bromo-4-chloro-3-indolyl-beta-D-galactopyranoside (X-gal) and plaque numbers were scored. Experiments were performed in triplicate and the percentage of inhibition was calculated with respect to no-peptide control experiments. ii) For "virus pre-treatment" experiments, approximately 2 x 10^4 plaque forming units (PFU) of HSV-1 were incubated in the presence of 20 µM of peptides for 45 min at 37°C, then titrated on Vero cell monolayers. iii) For "cell pre-exposure" experiments, Vero cells were incubated with 20 µM of peptides for 30 min at 4°C. Peptides were removed, and cells were washed with phosphate-buffered saline before being infected with serial dilutions of HSV-1 and incubated for 45 min at 37°C.
Monolayers were exposed to different concentrations (10, 50, 100, 250 and 500 µM) of each peptide for 24 h, and cell viability was evaluated with the LDH assay. There was no significant difference between the viability of cells exposed to the peptides and that of cells exposed to control (data not shown). Thus, we evaluated the antiviral activity of wild type peptides and their analogs in: co-exposure experiments (cell + virus + peptide at zero time); virus pre-treatment (virus + peptide incubation before cell infection); and cell pre-exposure (cell + peptide incubation before virus infection). This would allow to evaluate if, and in which phase, the peptides could inhibit the virus infectivity.
For co-exposure experiments, we incubated the peptides on the monolayers of Vero cells together with the virus inoculum for 45 min before low pH treatment. The reduced form of wild-type hBD1 and hBD3 and analogs 1C, 1 N, 3C, 3N were used in all subsequent experiments. […] No control (peptide excluded) inhibited HSV-1 infectivity under similar experimental conditions.

[7] = peptide 12.5 µM, 200 mM NaCl, p<0.01

With “GIINTLDHYNCVSSGGQCLYSACPIFTKIQGTCYRGKAKCCK [1N]” the “chemotactic activity compared to wild-type hBD1” value [1] was “significantly lower activity”, the “chemotactic activity compared to wild-type hBD1” value [2] was “comparable to that of wild-type hBD1” and the “antibacterial activity, inhibition by NaCl” value ([3]; 50 mM NaCl) was “inhibited already by 50 mM NaCl”. For the same sequence, the “antibacterial activity compared to wild-type hBD3” value [3, 7] was “significantly higher”, the “antibacterial activity, inhibition by NaCl” value ([4]; 50 mM NaCl) was “inhibited already by 50 mM NaCl” and the “antibacterial activity compared to wild-type hBD3” value [4, 7] was “significantly higher”. For the same sequence, the “antibacterial activity, inhibition by NaCl” value ([5]; 50 mM NaCl) was “inhibited already by 50 mM NaCl”, the “antibacterial activity compared to wild-type hBD3” value [5, 7] was “significantly higher” and the “% of infectivity” value ([6]; cell pre-exposure) was 64.8±3.5 %. The “% of infectivity” value ([6]; co-exposure) was 73.2±4.2 % and the “% of infectivity” value ([6]; virus pre-incubation) was 75.6±3.5 %.
